# Read-outs that look alike come from different tables or passages of the source.
# Tests used:
# [1] = molecular target: T1, PI3Kα H1047R (Homo sapiens, UniProt P42336, H1047R); assay: PI3Kα H1047R mutant in vitro cell based assay, MDA-MB-453 cells (AlphaLisa SureFire); conditions: MDA-MB-453 cell line, 0% FBS, 3 hours treatment
# T1 construct: The MDA-MB-453 (ATCC-HTB-131) cell line (PI3Kα H1047R); host or cells: MDA-MB-453
# Excerpt: PI3K-Alpha Kinase (PI3Kα) Activity: Wild-Type PI3Kα, H1047R Mutant PI3Kα, and E545K Mutant PI3Kα In Vitro Cell Based Assays and Determination of IC50 Values for Inhibitors
# The MDA-MB-453 (ATCC-HTB-131) cell line (PI3Kα H1047R) and MCF-7 (ATCC-HTB-22) cell line (PI3Kα E545K), MDA-MB-361 (ATCC-HTB-27) cell line (PI3Kα E545K), and SKBR3 (ATCC-HTB-30) cell line (wild type PI3Kα) were obtained from the American Type Culture Collection (Manassas, VA). MDA-MB-453 cells were maintained in Dulbecco's Modified Eagle Media (DMEM, Gibco 12430) supplemented with 10% Fetal Bovine Serum, heat inactivated (FBS HI, Gibco 10082), 1× non-essential amino acids (NEAA, Gibco 11140), 1 mM sodium pyruvate (Gibco 11360) and 1× Anti-Anti (Gibco 15240). MCF-7 cells were maintained in Minimum Essential Media (MEM) (Gibco 11095) supplemented with 10% Fetal Bovine Serum, heat inactivated (FBS HI, Gibco 10082), 1× non-essential amino acids (NEAA, Gibco 11140), 1 mM sodium pyruvate (Gibco 11360), 1× Anti-Anti (Gibco 15240) and 10 μg/mL human insulin (Sigma I 9278). MDA-MB-361 cells were maintained in Dulbecco's Modified Eagle Media (DMEM, Gibco 12430) supplemented with 20% Fetal Bovine Serum, heat inactivated (FBS HI, Gibco 10082), 1× non-essential amino acids (NEAA, Gibco 11140), 1 mM sodium pyruvate (Gibco 11360) and 1× Anti-Anti (Gibco 15240). SKBR3 cells were maintained in McCoy's 5A (Gibco 16600) supplemented with 10% Fetal Bovine Serum, heat inactivated (FBS HI, Gibco 10082), and 1× Anti-Anti (Gibco 15240). Cultures were maintained in a humidified incubator at 37° C. under 5% CO2/95% air.
# For compound testing in 0% FBS, MDA-MB-453, MCF-7 and SKBR3 cells were seeded at a density of 1.5×10^4, 1.0×10^4, and 1.0×10^4 cells, respectively, per well in white 384-well plates in 20 μl of Minimum Essential Media (MEM) assay media with 1×NEAA, 1 mM sodium pyruvate, and 1 μg/mL human insulin (Sigma 19278) (Assay Medium); while MDA-MB-361 cells were seeded at a density of 1.5×10^4 per well in white 384-well plates in 20 μl Assay Medium without insulin. After plating, cells were allowed to attach overnight. Compounds dissolved in 10 mM stock solutions in DMSO were serially diluted 1:3 in DMSO to generate a 10-point dilution series and plated using an acoustic liquid handler system (Echo 550 Series Liquid Handler, Labcyte). A 5× intermediate compound dilution plate in MEM with 1×NEAA and 1 mM sodium pyruvate (150 μM starting compound concentration in 1.5% DMSO) was then prepared. Five μl of the intermediate serially diluted compounds were added to the cell plate to final concentrations ranging from […] in 0.3% DMSO. 0.3% DMSO alone was used to establish the maximum (MAX) signal and GDC-0032 at a final concentration of 1 μM was used as a reference compound for the minimum (MIN) signal. After 3 hours treatment, the medium was removed, and the cells were lysed in 10 μL of 1× SureFire Lysis buffer with shaking for 10 minutes at room temperature. The Acceptor Mix (Reaction Buffer 1+Reaction Buffer 2+Activation Buffer+SureFire Ultra Acceptor Beads) was prepared by diluting Activation buffer 25-fold in combined Reaction Buffer 1 and Reaction Buffer 2.
# The Acceptor beads were diluted 50-fold in the combined Reaction Buffers. Five μL of Acceptor Mix was added to each well, the plate was sealed and covered with foil and incubated for 1 hour at room temperature. The Donor Mix (dilution buffer+SureFire Ultra Donor Beads) was prepared by diluting Donor Beads 50-fold in dilution buffer. Five μL of the Donor Mix was added to each well and the plate sealed and covered with foil and incubated for 1-2 hours at room temperature in the dark. The plates were read on a Neo2 plate reader instrument from Biotek using standard AlphaLisa settings.
# Compounds were tested in duplicate and the % inhibition at each compound concentration was used to generate two dose response curves. One IC50 was generated using average % inhibition at each compound concentration. […]
# [2] = molecular target: T2, PI3Kα E545K (Homo sapiens, UniProt P42336, E545K); assay: PI3Kα E545K mutant in vitro cell based assay, MCF-7 cells; conditions: MCF-7 cell line, 0% FBS, 3 hours treatment
# T2 sequence (P42336 whole entry E545K): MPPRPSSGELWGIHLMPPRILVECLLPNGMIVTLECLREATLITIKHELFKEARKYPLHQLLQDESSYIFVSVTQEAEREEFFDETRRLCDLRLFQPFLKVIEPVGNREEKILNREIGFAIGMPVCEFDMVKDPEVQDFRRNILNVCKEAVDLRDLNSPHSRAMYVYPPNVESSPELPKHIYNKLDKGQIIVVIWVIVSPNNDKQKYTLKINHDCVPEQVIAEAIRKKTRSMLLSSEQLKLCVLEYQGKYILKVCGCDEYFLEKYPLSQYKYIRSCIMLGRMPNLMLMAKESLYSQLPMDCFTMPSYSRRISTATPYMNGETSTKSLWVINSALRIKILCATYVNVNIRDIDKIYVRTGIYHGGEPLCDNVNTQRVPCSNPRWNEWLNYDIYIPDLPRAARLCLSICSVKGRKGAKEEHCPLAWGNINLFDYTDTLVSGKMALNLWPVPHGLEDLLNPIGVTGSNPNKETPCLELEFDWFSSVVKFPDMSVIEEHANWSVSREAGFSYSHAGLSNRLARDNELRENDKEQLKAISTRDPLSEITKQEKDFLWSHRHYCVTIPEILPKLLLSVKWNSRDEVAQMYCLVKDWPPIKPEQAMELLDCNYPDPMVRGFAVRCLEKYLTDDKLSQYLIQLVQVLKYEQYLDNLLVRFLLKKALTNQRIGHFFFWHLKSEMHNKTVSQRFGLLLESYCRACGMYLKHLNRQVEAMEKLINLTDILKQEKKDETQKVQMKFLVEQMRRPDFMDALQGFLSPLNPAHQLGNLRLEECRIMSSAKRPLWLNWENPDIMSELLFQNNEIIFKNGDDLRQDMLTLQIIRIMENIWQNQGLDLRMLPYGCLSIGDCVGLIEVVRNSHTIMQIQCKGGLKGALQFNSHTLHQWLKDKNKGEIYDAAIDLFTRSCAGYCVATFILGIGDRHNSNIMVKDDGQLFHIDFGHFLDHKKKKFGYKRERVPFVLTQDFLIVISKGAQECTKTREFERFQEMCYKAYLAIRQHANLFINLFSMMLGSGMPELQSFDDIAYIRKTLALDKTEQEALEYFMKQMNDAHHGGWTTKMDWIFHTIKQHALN
# T2 sequence (P27986 whole entry partner): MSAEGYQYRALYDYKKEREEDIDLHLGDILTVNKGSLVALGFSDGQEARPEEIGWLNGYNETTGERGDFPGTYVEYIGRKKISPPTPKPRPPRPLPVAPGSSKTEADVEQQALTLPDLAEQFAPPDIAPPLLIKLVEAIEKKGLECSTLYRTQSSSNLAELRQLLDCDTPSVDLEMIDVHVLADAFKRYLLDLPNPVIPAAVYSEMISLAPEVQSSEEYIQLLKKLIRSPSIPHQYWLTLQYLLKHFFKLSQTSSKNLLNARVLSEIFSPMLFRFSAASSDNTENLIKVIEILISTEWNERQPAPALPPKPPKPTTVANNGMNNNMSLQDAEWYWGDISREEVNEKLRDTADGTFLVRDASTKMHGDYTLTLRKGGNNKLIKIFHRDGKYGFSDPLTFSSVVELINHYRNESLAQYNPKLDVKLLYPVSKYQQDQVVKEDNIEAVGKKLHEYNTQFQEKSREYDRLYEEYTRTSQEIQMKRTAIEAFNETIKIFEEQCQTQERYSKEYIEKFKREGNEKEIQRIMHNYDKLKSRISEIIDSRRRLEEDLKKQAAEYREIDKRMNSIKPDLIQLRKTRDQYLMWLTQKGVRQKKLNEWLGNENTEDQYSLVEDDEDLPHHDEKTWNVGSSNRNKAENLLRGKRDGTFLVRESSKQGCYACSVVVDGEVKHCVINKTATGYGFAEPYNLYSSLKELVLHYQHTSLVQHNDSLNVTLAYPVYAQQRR
# Outline: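 MCF-7 cells (PI3Kα E545K) in serum-free MEM with 1 μg/mL insulin were treated 3 h with 10-point 1:3 dilutions in 0.3% DMSO. Lysates were read by SureFire AlphaLisa. IC50 was fitted by 4-parameter logistic to % inhibition relative to DMSO (max) and 1 μM GDC-0032 (min), duplicates averaged.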
# [3] = Metabolic stability and intrinsic clearance in human liver microsomes (MICS); type: in vitro ADME; conditions: pH 7.4
# Outline: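 Parent depletion by LC-MS/MS, run in duplicate, gave in vitro t1/2 from the slope of ln(% remaining) versus time, converted to CLint (μL/min/mg protein). Incubations: 1 μM compound, microsomes at 0.5 mg/mL, pH 7.4 phosphate, 37° C, ±1 mM NADPH, timepoints 0.5, 5, 15, 30, 60 min.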
# [4] = molecular target: T2, PI3Kα E545K; assay: PI3Kα E545K mutant in vitro cell based assay, MDA-MB-361 cells; parameters: MDA-MB-361 (ATCC-HTB-27) cell line (PI3Kα E545K); host or cells: MDA-MB-361; conditions: MDA-MB-361 cell line, 0% FBS, no insulin, 3 hours treatment
# Outline: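 Compound exposure lasted 3 hours, in duplicate 10-point 1:3 dilutions at 0.3% DMSO final, on overnight-attached MDA-MB-361 cells carrying PI3Kα E545K in insulin-free, 0% FBS MEM. Lysates read by SureFire AlphaLISA. Relative IC50 from 4-parameter logistic fit versus DMSO and 1 μM GDC-0032 controls.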
# T1 sequence (P42336 whole entry H1047R): as the sequence (P42336 whole entry E545K) above, with K545E, H1047R counted along it
# T1 sequence (P27986 whole entry partner): as the sequence (P27986 whole entry partner) above
Structure (SMILES),IC50 [1] [nM],IC50 [2] [nM],"microsomal CLint at 1 μM ([3]; human, microsomes) [µL/min/mg]","microsomal CLint at 1 μM ([3]; human liver microsomes 0.5 mg/mL, 1 μM compound, read-out: intrinsic clearance in human MICS) [µL/min/mg]",IC50 [4] [nM]
"Cc1cc([C@@H](C)Oc2ccc(Cl)nc2-c2noc(=O)[nH]2)c2oc(-c3ccccc3)c(C)c(=O)c2c1 [Example 2, 3-[6-Chloro-3-[(1R)-1-(3,6-dimethyl-4-oxo-2-phenyl-chromen-8-yl)ethoxy]-2-pyridyl]-4H-1,2,4-oxadiazol-5-one]",< 100,< 500,,< 50,
"Cc1cc([C@@H](C)Oc2ccc(Cl)nc2S(C)(=O)=O)c2oc(-c3cnn(CCO)c3)c(C)c(=O)c2c1 [Example 29B, 8-[(1R)-1-[(6-Chloro-2-methylsulfonyl-3-pyridyl)oxy]ethyl]-2-[1-(2-hydroxyethyl)pyrazol-4-yl]-3,6-dimethyl-chromen-4-one]",< 100,< 500,,,< 500
"Cc1cc([C@@H](C)Oc2ccc(Cl)nc2S(N)(=O)=O)c2oc(-c3ccc(S(C)(=O)=O)cc3)c(C)c(=O)c2c1 [Example 31C, 6-Chloro-3-[(1R)-1-[3,6-dimethyl-2-(4-methylsulfonylphenyl)-4-oxo-chromen-8-yl]ethoxy]pyridine-2-sulfonamide]",< 100,< 500,,,< 500
"Cc1cc([C@@H](C)Oc2ccc(Cl)nc2N)c2oc(-c3cnn(C)c3)c(C)c(=O)c2c1 [Example 30B, 8-[(1R)-1-[(2-Amino-6-chloro-3-pyridyl)oxy]ethyl]-3,6-dimethyl-2-(1-methylpyrazol-4-yl)chromen-4-one]",< 100,< 500,,,< 500
"Cc1cc([C@@H](C)Oc2ccc(Cl)nc2C(N)=O)c2oc(-c3ccc4[nH]ncc4c3)c(C)c(=O)c2c1 [Example 22B, 6-Chloro-3-[(1R)-1-[2-(1H-indazol-5-yl)-3,6-dimethyl-4-oxo-chromen-8-yl]ethoxy]pyridine-2-carboxamide]",< 100,< 500,,,< 500

# The next lines start with the values.
IC50 [1] [nM],IC50 [2] [nM],"microsomal CLint at 1 μM ([3]; human, microsomes) [µL/min/mg]","microsomal CLint at 1 μM ([3]; human liver microsomes 0.5 mg/mL, 1 μM compound, read-out: intrinsic clearance in human MICS) [µL/min/mg]",IC50 [4] [nM],Structure (SMILES)
< 100,< 500,< 50,,,"Cc1cc([C@@H](C)Oc2ccc(Cl)nc2S(N)(=O)=O)c2oc(-c3cnc(C4CC4)nc3)c(C)c(=O)c2c1 [Example 83A, 6-Chloro-3-[(1R)-1-[2-(2-cyclopropylpyrimidin-5-yl)-3,6-dimethyl-4-oxo-chromen-8-yl]ethoxy]pyridine-2-sulfonamide]"
< 100,< 500,,,< 500,"Cc1cc([C@@H](C)Oc2ccc(Cl)nc2S(C)(=O)=O)c2oc(-c3cnn(C)c3)c(C)c(=O)c2c1 [Example 146A, 8-[(1R)-1-[(6-Chloro-2-methylsulfonyl-3-pyridyl)oxy]ethyl]-3,6-dimethyl-2-(1-methylpyrazol-4-yl)chromen-4-one]"
< 100,< 500,,,< 500,"Cc1cc([C@@H](C)Oc2ccc(Cl)nc2S(N)(=O)=O)c2oc(C3CC3)c(C)c(=O)c2c1 [Example 74A, 6-Chloro-3-[(1R)-1-(2-cyclopropyl-3,6-dimethyl-4-oxo-chromen-8-yl)ethoxy]pyridine-2-sulfonamide]"
< 100,< 500,,,< 500,"Cc1cc([C@@H](C)Oc2ccc(Cl)nc2C(N)=O)c2oc(-c3ccc4nc(C)sc4c3)c(C)c(=O)c2c1 [Example 68A, 6-Chloro-3-[(1R)-1-[3,6-dimethyl-2-(2-methyl-1,3-benzothiazol-6-yl)-4-oxo-chromen-8-yl]ethoxy]pyridine-2-carboxamide]"
